Data on one compound can be found in patent US20160282364A1, “ASSAY FOR INSULIN-DEGRADING ENZYME (IDE) INHIBITORS” (PRESIDENT AND FELLOWS OF HARVARD COLLEGE, priority 2013, published 2016).

Assay in all cases: Small molecule-enzyme mutant complementation study
Common to all, as to type: biochemical

The target of one series is T1, hIDE A198Q (Homo sapiens, UniProt P14735, A198Q).
T1 construct: The reported N-His6-tagged human IDE42-1019 construct; made in house; host or cells: E. coli Rosetta 2 (DE3) pLysS
T1 sequence (P14735 42-1019 A198Q): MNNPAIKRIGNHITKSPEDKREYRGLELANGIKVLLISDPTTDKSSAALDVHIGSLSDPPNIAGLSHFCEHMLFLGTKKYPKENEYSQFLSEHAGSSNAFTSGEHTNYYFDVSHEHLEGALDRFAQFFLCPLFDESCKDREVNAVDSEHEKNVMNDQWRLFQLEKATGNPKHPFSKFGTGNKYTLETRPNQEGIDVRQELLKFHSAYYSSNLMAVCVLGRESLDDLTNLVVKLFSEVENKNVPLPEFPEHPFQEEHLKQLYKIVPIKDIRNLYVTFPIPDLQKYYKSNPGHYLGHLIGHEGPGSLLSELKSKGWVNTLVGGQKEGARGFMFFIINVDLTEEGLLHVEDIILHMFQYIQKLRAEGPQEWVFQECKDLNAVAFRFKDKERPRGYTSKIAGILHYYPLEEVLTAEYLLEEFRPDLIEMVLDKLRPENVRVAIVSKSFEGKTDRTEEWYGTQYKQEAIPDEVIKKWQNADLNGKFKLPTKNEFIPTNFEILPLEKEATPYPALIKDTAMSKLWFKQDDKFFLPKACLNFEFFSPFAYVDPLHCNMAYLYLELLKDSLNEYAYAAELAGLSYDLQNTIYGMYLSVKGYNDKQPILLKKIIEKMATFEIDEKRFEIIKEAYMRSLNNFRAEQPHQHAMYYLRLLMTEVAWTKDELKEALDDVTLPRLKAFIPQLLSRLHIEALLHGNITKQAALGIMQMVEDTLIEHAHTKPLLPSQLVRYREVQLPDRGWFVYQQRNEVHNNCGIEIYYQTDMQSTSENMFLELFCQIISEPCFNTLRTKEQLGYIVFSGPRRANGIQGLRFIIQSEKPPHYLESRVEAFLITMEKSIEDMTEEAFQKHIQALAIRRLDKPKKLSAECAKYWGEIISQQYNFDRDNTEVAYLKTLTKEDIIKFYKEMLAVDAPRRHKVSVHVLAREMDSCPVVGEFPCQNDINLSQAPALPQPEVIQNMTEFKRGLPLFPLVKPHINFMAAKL
Particulars: A198Q vs hIDE WT, batch 1. From the text:
(§1) Protease assays with fluorogenic peptide substrates. […] All assay data points were obtained in duplicate.
(§2) Site-directed mutagenesis, expression, and purification of human IDE. The reported N-His6-tagged human IDE42-1019 construct was introduced in the expression plasmid pTrcHis-A (Invitrogen) using primers for uracil-specific excision reactions (USER) by Taq (NEB) and Pfu polymerases (PfuTurbo CX®, Agilent). The IDE gene was amplified with the primers 5′-[…]-dU-[…] and 5′-[…] G-dU-[…] (underlined sequences represent overhangs, and italics highlight the PCR priming sequence). Similarly, the pTrcHis-A vector was amplified for USER cloning with the primers 5′-[…] TGA-dU-[…] CCC and 5′-[…]-dU-[…]. Mutant IDE constructs were generated by amplifying the full vector construct with USER cloning primers introducing a mutant overhang (Table 5).
(§3) All PCR products were purified on microcentrifuge membrane columns (MinElute®, Qiagen) and quantified by UV absorbance (NanoDrop). Each fragment (0.2 pmol) was combined in a 10 μL reaction mixture containing 20 units DpnI (NEB), 0.75 units of USER mix (Endonuclease VIII and Uracil-DNA Glycosylase, NEB), 20 mM Tris-acetate, 50 mM potassium acetate, 10 mM magnesium acetate, 1 mM dithiothreitol at pH 7.9 (1× NEBuffer 4). The reactions were incubated at 37° C. for 45 min, followed by heating to 80° C. and slow cooling to 30° C. (0.2° C./s). The hybridized constructs were directly used for heat-shock transformation of chemically competent NEB turbo E. coli cells according to the manufacturer's instructions. Transformants were selected on carbenicillin LB agar, and isolated colonies were cultured overnight in 2 mL LB.
(§4) The plasmid was extracted using a microcentrifuge membrane column kit (Miniprep®, Qiagen), and the sequence of genes and vector junctions were confirmed by Sanger sequencing (Table 6). The plasmid constructs were transformed by heat-shock into chemically-competent expression strain Rosetta 2 (DE3) pLysS E. coli cells (EMD Millipore), and selected on carbenicillin/chloramphenicol LB agar. Cells transformed with IDE pTrcHis A constructs were cultured overnight at 37° C. in 2 XYT media (31 g in 1 L) containing 100 μg/mL ampicillin and 34 μg/mL chloramphenicol. Expression of His6-tagged IDE proteins was induced when the culture measured OD600 ˜0.6 by addition of isopropyl-β-D-1-thiogalactopyranoside (IPTG) to 1 mM final concentration, incubated overnight at 37° C., followed by centrifugation at 10,000 g for 30 min at 4° C.
(§5) Recombinant His6-tagged proteins were purified by Ni(II)-affinity chromatography (IMAC sepharose beads, GE Healthcare®) according to the manufacturer's instructions. The cell pellets were resuspended in pH 8.0 buffer containing 50 mM phosphate, 300 mM NaCl, 10 mM imidazole, 1% Triton X-100 and 1 mM tris(2-carboxyethyl)phosphine hydrochloride (TCEP), and were lysed by probe sonication for 4 min at 4° C., followed by clearing of cell debris by centrifugation at 10,000 g for 25 min at 4° C. The supernatant was incubated with Ni(II)-doped IMAC resin (2 mL) for 3 h at 4° C. The resin was washed twice with the cell resuspension/lysis buffer, and three times with pH 8.0 buffer containing 50 mM phosphate, 300 mM NaCl,50 mM imidazole and 1 mM TCEP. Elution was performed in 2 mL aliquots by raising the imidazole concentration to 250 mM and subsequently to 500 mM in the previous buffer. The fractions were combined and the buffer was exchanged to the recommended IDE buffer (R&D) using spin columns with 100 KDa molecular weight cut off membranes (Millipore). Protein yields were typically ˜10 μg/L, and >90% purity based on gel electrophoresis analysis (Coomassie stained).

Another series has as its target T2, hIDE I374M (Homo sapiens, UniProt P14735, I374M).
T2 construct: The reported N-His6-tagged human IDE42-1019 construct was introduced in the expression plasmid pTrcHis-A; made in house; host or cells: E. coli Rosetta 2 (DE3) pLysS
Particulars: I374M vs hIDE WT, batch 1.
Description: as §1, §2, §3, §4, §5

The next series deals with T3, hIDE I310R (Homo sapiens, UniProt P14735, I310R).
T3 construct: The reported N-His6-tagged human IDE42-1019 construct; made in house; host or cells: E. coli Rosetta 2 (DE3) pLysS
T3 sequence (P14735 42-1019 I310R): as the sequence (P14735 42-1019 A198Q) above, with Q157A, I269R counted along it
Conditions: I310R vs hIDE WT, batch 2.
Description: as §1, §2, §3, §4, §5

A further series has as its target T4, hIDE G361Q (Homo sapiens, UniProt P14735, G361Q).
T4 construct: The reported N-His6-tagged human IDE42-1019 construct was introduced in the expression plasmid pTrcHis-A; made in house; host or cells: E. coli Rosetta 2 (DE3) pLysS
Conditions: G361Q vs hIDE WT, batch 3.
Description: as §1, §2, §3, §4, §5

The next series deals with T5, hIDE A198Y (Homo sapiens, UniProt P14735, A198Y).
T5 construct: The reported N-His6-tagged human IDE42-1019 construct; made in house; host or cells: E. coli Rosetta 2 (DE3) pLysS
T5 sequence (P14735 42-1019 A198Y): as the sequence (P14735 42-1019 A198Q) above, with Q157Y counted along it
Conditions: A198Y vs hIDE WT, batch 2.
Description: as §1, §2, §3, §4, §5

In another series the target is T6, hIDE Y314F (Homo sapiens, UniProt P14735, Y314F).
T6 construct: The reported N-His6-tagged human IDE42-1019 construct; made in house; host or cells: E. coli Rosetta 2 (DE3) pLysS
T6 sequence (P14735 42-1019 Y314F): as the sequence (P14735 42-1019 A198Q) above, with Q157A, Y273F counted along it
Conditions: Y314F vs hIDE WT, batch 2.
Description: as §1, §2, §3, §4, §5

In another series the target is T7, hIDE W199F (Homo sapiens, UniProt P14735, W199F).
T7 construct: The reported N-His6-tagged human IDE42-1019 construct; made in house; host or cells: E. coli Rosetta 2 (DE3) pLysS
T7 sequence (P14735 42-1019 W199F): as the sequence (P14735 42-1019 A198Q) above, with Q157A, W158F counted along it
Conditions: W199F vs hIDE WT, batch 2.
Description: as §1, §2, §3, §4, §5

The next series concerns the target T8, hIDE W199Y (Homo sapiens, UniProt P14735, W199Y).
T8 construct: The reported N-His6-tagged human IDE42-1019 construct; made in house; host or cells: E. coli Rosetta 2 (DE3) pLysS
Particulars: W199Y vs hIDE WT, batch 2.
Description: as §1, §2, §3, §4, §5

In another series the target is T9, hIDE V360R (Homo sapiens, UniProt P14735, V360R).
T9 construct: The reported N-His6-tagged human IDE42-1019 construct was introduced in the expression plasmid pTrcHis-A; made in house; host or cells: E. coli Rosetta 2 (DE3) pLysS
T9 sequence (P14735 42-1019 V360R): as the sequence (P14735 42-1019 A198Q) above, with Q157A, V319R counted along it
Particulars: V360R vs hIDE WT, batch 3.
Description: as §1, §2, §3, §4, §5

The next series deals with T10, hIDE K364A (Homo sapiens, UniProt P14735, K364A).
T10 construct: The reported N-His6-tagged human IDE42-1019 construct was introduced in the expression plasmid pTrcHis-A; made in house; host or cells: E. coli Rosetta 2 (DE3) pLysS
T10 sequence (P14735 42-1019 K364A): as the sequence (P14735 42-1019 A198Q) above, with Q157A, K323A counted along it
Particulars: K364A vs hIDE WT, batch 2.
Description: as §1, §2, §3, §4, §5

Another series addresses T11, hIDE V360Q (Homo sapiens, UniProt P14735, V360Q).
T11 construct: The reported N-His6-tagged human IDE42-1019 construct was introduced in the expression plasmid pTrcHis-A; made in house; host or cells: E. coli Rosetta 2 (DE3) pLysS
Particulars: V360Q vs hIDE WT, batch 1.
Description: as §1, §2, §3, §4, §5

T4 sequence (P14735 42-1019 G361Q): as the sequence (P14735 42-1019 A198Q) above, with Q157A, G320Q counted along it
T11 sequence (P14735 42-1019 V360Q): as the sequence (P14735 42-1019 A198Q) above, with Q157A, V319Q counted along it
T8 sequence (P14735 42-1019 W199Y): as the sequence (P14735 42-1019 A198Q) above, with Q157A, W158Y counted along it
T2 sequence (P14735 42-1019 I374M): as the sequence (P14735 42-1019 A198Q) above, with Q157A, I333M counted along it

Regarding `NC(=O)CCC1NC(=O)C=CC(=O)NC(C(N)=O)CCCCNC(=O)C(Cc2ccc(C(=O)c3ccccc3)cc2)NC(=O)C(CC2CCCCC2)NC1=O` (centres unmarked) [Compound 6b], the IC50 shift stood at 2.3 fold at hIDE A198Q; 0.7 fold on hIDE I374M; 0.8 fold on hIDE I310R; 0.8 fold at hIDE G361Q; 0.5 fold on hIDE A198Y; 1.2 fold on hIDE Y314F. In addition, the IC50 shift at hIDE W199F is on record as 3.0 fold; on hIDE W199Y it was 1.8 fold; on hIDE V360R, 1.4 fold; on hIDE K364A, 26 fold; on hIDE V360Q, 1.5 fold.
